From US9326506B2, “Preparation method, agricultural composition and applications of natural brassinolide analogs” (CHENGDU NEWSUN CROPSCIENCE CO., LTD, priority 2012, dated 2016)

Legend:
rice = assay: Rice leaf bending assay (leaf inclination angle); type: in vivo; details: 48 hr; for Total angle: sum of 20 rice
Text: According to a rice leaf bending assay, we measured leaf inclination angle of rice to determine effects of the natural brassinolide analogues on the enhancement of plant development. The larger the leaf inclination angle of rice, the more effects on plant development. The detailed assay procedure is as follows:
The natural brassinolide analogues, BR1, BR2, BR3, BR4, BR5 and BR6, used herein, were those prepared by the method of Example 1. And BR1, BR2, BR3, BR4, BR5 and BR6 were mixed into a mixture of brassinolide analogues (referred to as “BRs”, in which the weight ratio of BR1:BR2:BR3:BR4:BR5:BR6 is 0.4:0.4:0.4:0.4:0.4:98). Respectively the analogues and the mixture were dissolved into 95% (V/V) ethanol solution, and then diluted with pure water to 1 mg/L, 0.1 mg/L, 0.01 mg/L, 0.001 mg/L and 0.0001 mg/L. In addition, pure water was used as a control.
After rice seeds were disinfected by using 5% sodium hypochlorite solution treatment, they were rinsed with distilled water until their pH>7, placed into a petri dish in a dark incubator, and cultured by using water at 30° C.±2° C. for 9 days. Then the nine-day-old etiolated seedlings of rice were cut around the center of the base of second leaf to segments with 1 cm leaf and 1 cm leaf sheath. The leaf segments were floated in distilled water, placed in a dark incubator, cultured at 30° C.±2° C. for 24 hr, and then dried by a filter paper. The dried leaf segments were respectively immersed in the above solutions containing different concentrations of the natural brassinolide analogues or pure water, and cultured in a dark incubator at 30° C.±2° C. for 48 hr. Every solution or pure water contained the leaf segments from 20 rice. Then the inclination angle between the second leaf and the leaf sheath of the leaf segments was measured by a protractor.

rice seed = assay: Salt tolerance assay: germination of rice seed under high salt environment; type: in vivo
Text: According to a salt tolerance assay, we measured germination of rice seed under high salt environment to determine effects of the natural brassinolide analogues on the salt tolerance of a plant.
The natural brassinolide analogues, BR1, BR2, BR3, BR4, BR5 and BR6, used herein, were those prepared by the method of Example 1. And BR1, BR2, BR3, BR4, BR5 and BR6 were mixed into a mixture of brassinolide analogues (referred to as “BRs”, in which the weight ratio of BR1:BR2:BR3:BR4:BR5:BR6 is 0.4:0.4:0.4:0.4:0.4:98). Respectively the analogues and the mixture were dissolved into 95% (V/V) ethanol solution, and then diluted with pure water to 1 mg/L, 0.1 mg/L, 0.01 mg/L, 0.001 mg/L and 0.0001 mg/L. In addition, pure water was used as a control. Furthermore, NaCl was added to the above solutions containing different concentrations of the natural brassinolide analogues or pure water respectively, and the concentrations of the salt are 300, 400, 500 and 600 mg/L respectively.
After rice seeds were disinfected by using 5% sodium hypochlorite solution treatment, they were rinsed with distilled water until their pH>7, placed into a petri dish in a dark incubator, and cultured at 30° C.±2° C. by using the above solutions containing different concentrations of the natural brassinolide analogues or pure water for observing the germination and calculating germination rates. The results are shown in tables 4-0˜4-4, which indicate that relative to the control, each of the natural brassinolide analogues and the mixture were capable of increasing germination rates of rice under high salt environment so as to enhance the salt tolerance of a plant; and substantially the enhancement of the germination rates was positively correlated to the concentrations of the natural brassinolide analogues and the mixture.

[1] = sample 0.0001 mg/l, salt 300 mg/l
[2] = sample 0.0001 mg/l, salt 400 mg/l
[3] = sample 0.0001 mg/l, salt 500 mg/l
[4] = sample 0.0001 mg/l, salt 600 mg/l
[5] = sample 0.001 mg/l, salt 300 mg/l
[6] = sample 0.001 mg/l, salt 400 mg/l
[7] = sample 0.001 mg/l, salt 500 mg/l
[8] = sample 0.001 mg/l, salt 600 mg/l
[9] = sample 0.01 mg/l, salt 300 mg/l
[10] = sample 0.01 mg/l, salt 400 mg/l
[11] = sample 0.01 mg/l, salt 500 mg/l
[12] = sample 0.01 mg/l, salt 600 mg/l

Row | Compound | Average angle (rice; 0.0001 mg/l) | Total angle (rice; 0.0001 mg/l) | Average angle (rice; 0.001 mg/l) | Total angle (rice; 0.001 mg/l) | Average angle (rice; 0.01 mg/l) | Total angle (rice; 0.01 mg/l) | Average angle (rice; 0.1 mg/l) | Total angle (rice; 0.1 mg/l) | Average angle (rice; 1 mg/l) | Total angle (rice; 1 mg/l) | Germination rate (rice seed; [1]) | Germination rate (rice seed; [2]) | Germination rate (rice seed; [3]) | Germination rate (rice seed; [4]) | Germination rate (rice seed; [5]) | Germination rate (rice seed; [6]) | Germination rate (rice seed; [7]) | Germination rate (rice seed; [8]) | Germination rate (rice seed; [9]) | Germination rate (rice seed; [10]) | further results
1 | CC[C@@H](C(C)C)[C@@H](O)[C@H](O)[C@@H](C)[C@H]1CCC2C3COC(=O)C4C[C@H](O)[C@H](O)C[C@]4(C)C3CC[C@@]21C (stereo partly drawn) [BR2] | 4.025 degree | 80.5 degree | 7.28 degree | 145.6 degree | 13.25 degree | 265 degree | 21.15 degree | 423 degree | 71.25 degree | 1425 degree | 45% | 41% | 39% | 36% | 50% | 42% | 40% | 36% | 50% | 51% | Germination rate (rice seed; [11]): 47%; Germination rate (rice seed; [12]): 39%; Germination rate (rice seed; sample 0.1 mg/l, salt 300 mg/l): 50%; Germination rate (rice seed; sample 0.1 mg/l, salt 400 mg/l): 50%; Germination rate (rice seed; sample 0.1 mg/l, salt 500 mg/l): 46%; Germination rate (rice seed; sample 0.1 mg/l, salt 600 mg/l): 38%; Germination rate (rice seed; sample 1 mg/l, salt 300 mg/l): 58%; Germination rate (rice seed; sample 1 mg/l, salt 400 mg/l): 51%; Germination rate (rice seed; sample 1 mg/l, salt 500 mg/l): 46%; Germination rate (rice seed; sample 1 mg/l, salt 600 mg/l): 38%
2 | C=C(C(C)C)[C@@H](O)[C@H](O)[C@@H](C)[C@H]1CCC2C3COC(=O)C4C[C@H](O)[C@H](O)C[C@]4(C)C3CC[C@@]21C (stereo partly drawn) [BR3] | 3.84 degree | 76.8 degree | 6.8 degree | 136 degree | 12.15 degree | 243 degree | 21 degree | 420 degree | 65.3 degree | 1306 degree | 50% | 45% | 39% | 32% | 50% | 43% | 40% | 33% | 51% | 50% | Germination rate (rice seed; [11]): 47%; Germination rate (rice seed; [12]): 39%; Germination rate (rice seed; sample 0.1 mg/l, salt 300 mg/l): 50%; Germination rate (rice seed; sample 0.1 mg/l, salt 400 mg/l): 50%; Germination rate (rice seed; sample 0.1 mg/l, salt 500 mg/l): 41%; Germination rate (rice seed; sample 0.1 mg/l, salt 600 mg/l): 38%; Germination rate (rice seed; sample 1 mg/l, salt 300 mg/l): 52%; Germination rate (rice seed; sample 1 mg/l, salt 400 mg/l): 46%; Germination rate (rice seed; sample 1 mg/l, salt 500 mg/l): 40%; Germination rate (rice seed; sample 1 mg/l, salt 600 mg/l): 38%
